According to patent US4652575A, “2-(ethylene-thio methyl furanyl)amino thiazole derivatives having acid secretion inhibiting activity” (Medosan Industrie Biochimiche Riunite S.p.A., priority 1984, dated 1987):
Read-outs that look alike come from different tables or passages of the source.

Assays:
gastric acid secretion = details: experimental tests on animals and humans; prior art; cited from earlier work
histamine H2 receptors [1] = molecular target: T1, histamine H2 receptors (Cavia porcellus, UniProt P47747); experiment: Antagonistic activity to the histamine H2 receptors "in vitro" on insulated atrium auricolas of Guinea pig heart; details: for inhibition at 10 µM / inhibition at 1 µM / inhibition at 0.1 µM / inhibition at 0.01 µM: guinea pig, 0.5 h, read-out: Antagonizing activity to histamine H2 receptors; for inhibition at 10 µM: compound 1·10^-5 M/L; for inhibition at 1 µM: compound 1·10^-6 M/L; for inhibition at 0.1 µM: compound 1·10^-7 M/L; for inhibition at 0.01 µM: compound 1·10^-8 M/L; for antagonistic action to the histamine H2 receptors (in words): in vitro
T1 construct: tests on insulated atrium auricolas of Guinea pig heart; from tissue; host or cells: isolated guinea pig heart atrium
Method: (§1) The preparations were a solution of the substances in 2.5% citric acid for the "in vitro" test and 5% citric acid for the "in vivo" test respectively. Citric acid was diluted in normal physiologic saline at neutral pH.
This activity was evaluated "in vitro" by carrying out tests on insulated atrium auricolas of Guinea pig heart. […] Metering was carried out by placing the preparation into a vessel containing a Ringer-Locke solution wherein pure oxygen was bubbling, at a temperature of 37° C. A response of the organ "in vitro" was first established at cumulative histamine doses of 2.5.10^-7, 5.10^-7, 10^-6, 5.10^-6, 10^-5 M/L. After obtaining two constant lines with histamine at a time interval of one hour from one another, the substances under test were added to the bath and after a 30 minutes contact with the preparation, a new histamine response line in the presence of the substance under test was drawn. The activity was tested at various concentrations of the new compounds (10^-5, 10^-6, 10^-7 and in one case 10^-8 M/L).

gastric secretion = experiment: Activity on gastric secretion "in vivo" (volume and total acidity of gastric juice after pylorus tieing, Shay); parameters: species or system male Wistar rats; details: for ED50 / change in vivo at 20 mg/kg: Rattus norvegicus, po; for ED50: read-out: DE50 in rat calculated on total acidity (mEq/4 hours); for Total acidity gastric juice secretion / Volume gastric juice secretion / change in vivo at 20 mg/kg: 20 mg/kg oral; for ability to reduce the gastric acid secretion (in words): volume and total acidity of gastric juice
Method: as §1
The ability of the compounds according to the present invention to inhibit the gastric secretion was studied "in vivo" both by evaluating the volume reduction of gastric juice, and by measuring the total acidity of same after administration of the substances under test according to the Takeda method (see the aforementioned literature).
To this end, tests have been made on male Wistar rats of an average weight of 200 g. The animals, 10 for each substance, were placed into individual cages provided with ground grating in order to avoid coprophagy, without food but with free access to water for 24 hours before test. […] Four hours later the animals were sacrificed and the gastric juice was collected, of which the volume expressed in ml and the total acidity expressed in mEq was measured. The gastric juice ([…] ) was titrated with 0.1N NaOH to pH 7 to determine the acid concentration. The total acidity was then calculated as the product of the total volume of gastric juice by the acid concentration.

histamine H2 receptors [2] = molecular target: T1, histamine H2 receptors; details: Daly M. J., Br. J. Pharmac., 72, 49, 1982; cited from earlier work
in vivo = details: po; for LD50 at 360 h: mouse; for LD50: rat
Text: The animals were kept under observation by checking mortality and possible pain signs for 15 days from start of test.

[3] = 6 hours before pilorus tieing, read-out: Total acidity gastric juice secretion, Variation %
[4] = 6 hours before pilorus tieing, read-out: Volume gastric juice secretion, Variation %
[5] = 12 hours before pilorus tieing, read-out: Total acidity gastric juice secretion, Variation %
[6] = 12 hours before pilorus tieing, read-out: Volume gastric juice secretion, Variation %
[7] = 24 hours before pilorus tieing, read-out: Total acidity gastric juice secretion, Variation %
[8] = 24 hours before pilorus tieing, read-out: Volume gastric juice secretion, Variation %
[9] = 36 hours before pilorus tieing, read-out: Total acidity gastric juice secretion, Variation %
[10] = 36 hours before pilorus tieing, read-out: Volume gastric juice secretion, Variation %
[11] = per os, 1 hour before pilorus tieing

T1 sequence (P47747 whole entry): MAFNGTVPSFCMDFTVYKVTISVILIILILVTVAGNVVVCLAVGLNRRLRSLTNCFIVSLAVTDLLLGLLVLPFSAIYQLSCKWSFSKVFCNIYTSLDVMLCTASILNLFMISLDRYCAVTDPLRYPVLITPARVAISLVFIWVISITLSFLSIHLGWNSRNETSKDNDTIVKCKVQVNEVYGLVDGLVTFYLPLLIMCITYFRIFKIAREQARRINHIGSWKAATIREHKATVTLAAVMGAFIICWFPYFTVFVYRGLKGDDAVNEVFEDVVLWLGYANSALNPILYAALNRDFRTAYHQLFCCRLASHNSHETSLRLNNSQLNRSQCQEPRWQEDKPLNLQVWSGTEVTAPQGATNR

CNC(=S)NCCCCc1cnc[nH]1 [Burimamide]
reduction of gastric acid secretion (in words) (gastric acid secretion): effective to reduce the gastric acid secretion

CN/C(=N/CCSCc1nc[nH]c1C)NC#N [Cimetidine, reference compound]
reduction of gastric acid secretion (in words) (gastric acid secretion): effective to reduce the gastric acid secretion | inhibition at 10 µM (histamine H2 receptors [1]; histamine 1·10^-5 M/L): 28% | inhibition at 10 µM (histamine H2 receptors [1]; histamine 1·10^-6 M/L): 100% | inhibition at 10 µM (histamine H2 receptors [1]; histamine 2,5·10^-7 M/L): 100% | inhibition at 10 µM (histamine H2 receptors [1]; histamine 5·10^-6 M/L): 50% | inhibition at 10 µM (histamine H2 receptors [1]; histamine 5·10^-7 M/L): 100% | inhibition at 1 µM (histamine H2 receptors [1]; histamine 1·10^-5 M/L): 10% | inhibition at 1 µM (histamine H2 receptors [1]; histamine 1·10^-6 M/L): 90% | inhibition at 1 µM (histamine H2 receptors [1]; histamine 2,5·10^-7 M/L): 100% | inhibition at 1 µM (histamine H2 receptors [1]; histamine 5·10^-6 M/L): 40% | inhibition at 1 µM (histamine H2 receptors [1]; histamine 5·10^-7 M/L): 90% | inhibition at 0.1 µM (histamine H2 receptors [1]; histamine 1·10^-5 M/L): 0% | inhibition at 0.1 µM (histamine H2 receptors [1]; histamine 1·10^-6 M/L): 45% | inhibition at 0.1 µM (histamine H2 receptors [1]; histamine 2,5·10^-7 M/L): 80% | inhibition at 0.1 µM (histamine H2 receptors [1]; histamine 5·10^-6 M/L): 22% | inhibition at 0.1 µM (histamine H2 receptors [1]; histamine 5·10^-7 M/L): 80% | ED50 (gastric secretion): 30 mg/kg | antagonism of histamine induced increase of contraction frequency of the insulated atrium (in words) (histamine H2 receptors [2]): competitively antagonize

CN(C)Cc1ccc(CSCCNc2nc(-c3ccc4ccccc4c3)cs2)o1 [Example No. 6, 2-(2-(((5-(dimethylamino)methyl-2-furanyl)methyl)thio)ethyl)-amino-4-(2-naphthyl)-thiazole]
inhibition at 10 µM (histamine H2 receptors [1]; histamine 1·10^-5 M/L): 90% | inhibition at 10 µM (histamine H2 receptors [1]; histamine 1·10^-6 M/L): 100% | inhibition at 10 µM (histamine H2 receptors [1]; histamine 2,5·10^-7 M/L): 100% | inhibition at 10 µM (histamine H2 receptors [1]; histamine 5·10^-6 M/L): 90% | inhibition at 10 µM (histamine H2 receptors [1]; histamine 5·10^-7 M/L): 100% | inhibition at 1 µM (histamine H2 receptors [1]; histamine 1·10^-5 M/L): 40% | inhibition at 1 µM (histamine H2 receptors [1]; histamine 1·10^-6 M/L): 90% | inhibition at 1 µM (histamine H2 receptors [1]; histamine 2,5·10^-7 M/L): 100% | inhibition at 1 µM (histamine H2 receptors [1]; histamine 5·10^-6 M/L): 70% | inhibition at 1 µM (histamine H2 receptors [1]; histamine 5·10^-7 M/L): 100% | inhibition at 0.1 µM (histamine H2 receptors [1]; histamine 1·10^-5 M/L): 35% | inhibition at 0.1 µM (histamine H2 receptors [1]; histamine 1·10^-6 M/L): 70% | inhibition at 0.1 µM (histamine H2 receptors [1]; histamine 2,5·10^-7 M/L): 95% | inhibition at 0.1 µM (histamine H2 receptors [1]; histamine 5·10^-6 M/L): 50% | inhibition at 0.1 µM (histamine H2 receptors [1]; histamine 5·10^-7 M/L): 95% | inhibition at 0.01 µM (histamine H2 receptors [1]; histamine 1·10^-5 M/L): 15% | inhibition at 0.01 µM (histamine H2 receptors [1]; histamine 1·10^-6 M/L): 70% | inhibition at 0.01 µM (histamine H2 receptors [1]; histamine 2,5·10^-7 M/L): 95% | inhibition at 0.01 µM (histamine H2 receptors [1]; histamine 5·10^-6 M/L): 50% | inhibition at 0.01 µM (histamine H2 receptors [1]; histamine 5·10^-7 M/L): 85% | antagonistic action to the histamine H2 receptors (in words) (histamine H2 receptors [1]): interesting ability | LD50 at 360 h (in vivo): 2100 mg/kg | LD50 (in vivo): 2800 mg/kg | Total acidity gastric juice secretion (gastric secretion; 6 hours before pilorus tieing): 0,05 mEq/4 hours | Volume gastric juice secretion (gastric secretion; 6 hours before pilorus tieing): 3,0 ml/4 hours | Total acidity gastric juice secretion (gastric secretion; 12 hours before pilorus tieing): 0,04 mEq/4 hours | Volume gastric juice secretion (gastric secretion; 12 hours before pilorus tieing): 2,9 ml/4 hours | Total acidity gastric juice secretion (gastric secretion; 24 hours before pilorus tieing): 0,12 mEq/4 hours | Volume gastric juice secretion (gastric secretion; 24 hours before pilorus tieing): 4,5 ml/4 hours | Total acidity gastric juice secretion (gastric secretion; 36 hours before pilorus tieing): 0,12 mEq/4 hours | Volume gastric juice secretion (gastric secretion; 36 hours before pilorus tieing): 5,0 ml/4 hours | change in vivo at 20 mg/kg (gastric secretion; [3]): -70% | change in vivo at 20 mg/kg (gastric secretion; [4]): -43% | change in vivo at 20 mg/kg (gastric secretion; [5]): -73% | change in vivo at 20 mg/kg (gastric secretion; [6]): -37% | change in vivo at 20 mg/kg (gastric secretion; [7]): -29% | change in vivo at 20 mg/kg (gastric secretion; [8]): -20% | change in vivo at 20 mg/kg (gastric secretion; [9]): -25% | change in vivo at 20 mg/kg (gastric secretion; [10]): -11% | ED50 (gastric secretion; [11]): 1.8 mg/kg | ability to reduce the gastric acid secretion (in words) (gastric secretion): interesting ability

CN(C)Cc1ccc(CSCCNc2nc(-c3ccc(Oc4ccccc4)cc3)cs2)o1 [Example No. 13, 2-(2-(((5-(dimethylamino)methyl-2-furanyl)methyl)thio)ethyl)amino-4-(4-phenoxy)phenyl-thiazole]
inhibition at 10 µM (histamine H2 receptors [1]; histamine 1·10^-5 M/L): 90% | inhibition at 10 µM (histamine H2 receptors [1]; histamine 1·10^-6 M/L): 95% | inhibition at 10 µM (histamine H2 receptors [1]; histamine 2,5·10^-7 M/L): 100% | inhibition at 10 µM (histamine H2 receptors [1]; histamine 5·10^-6 M/L): 90% | inhibition at 10 µM (histamine H2 receptors [1]; histamine 5·10^-7 M/L): 100% | inhibition at 1 µM (histamine H2 receptors [1]; histamine 1·10^-5 M/L): 38% | inhibition at 1 µM (histamine H2 receptors [1]; histamine 1·10^-6 M/L): 80% | inhibition at 1 µM (histamine H2 receptors [1]; histamine 2,5·10^-7 M/L): 90% | inhibition at 1 µM (histamine H2 receptors [1]; histamine 5·10^-6 M/L): 65% | inhibition at 1 µM (histamine H2 receptors [1]; histamine 5·10^-7 M/L): 90% | inhibition at 0.1 µM (histamine H2 receptors [1]; histamine 1·10^-5 M/L): 40% | inhibition at 0.1 µM (histamine H2 receptors [1]; histamine 1·10^-6 M/L): 50% | inhibition at 0.1 µM (histamine H2 receptors [1]; histamine 2,5·10^-7 M/L): 90% | inhibition at 0.1 µM (histamine H2 receptors [1]; histamine 5·10^-6 M/L): 30% | inhibition at 0.1 µM (histamine H2 receptors [1]; histamine 5·10^-7 M/L): 70% | antagonistic action to the histamine H2 receptors (in words) (histamine H2 receptors [1]): interesting ability | LD50 at 360 h (in vivo): 3000 mg/kg | LD50 (in vivo): > 3000 mg/kg | Total acidity gastric juice secretion (gastric secretion; 6 hours before pilorus tieing): 0,09 mEq/4 hours | Volume gastric juice secretion (gastric secretion; 6 hours before pilorus tieing): 3,9 ml/4 hours | Total acidity gastric juice secretion (gastric secretion; 12 hours before pilorus tieing): 0,09 mEq/4 hours | Volume gastric juice secretion (gastric secretion; 12 hours before pilorus tieing): 3,9 ml/4 hours | Total acidity gastric juice secretion (gastric secretion; 24 hours before pilorus tieing): 0,13 mEq/4 hours | Volume gastric juice secretion (gastric secretion; 24 hours before pilorus tieing): 4,7 ml/4 hours | Total acidity gastric juice secretion (gastric secretion; 36 hours before pilorus tieing): 0,15 mEq/4 hours | Volume gastric juice secretion (gastric secretion; 36 hours before pilorus tieing): 5,1 ml/4 hours | change in vivo at 20 mg/kg (gastric secretion; [3]): -47% | change in vivo at 20 mg/kg (gastric secretion; [4]): -26% | change in vivo at 20 mg/kg (gastric secretion; [5]): -40% | change in vivo at 20 mg/kg (gastric secretion; [6]): -23% | change in vivo at 20 mg/kg (gastric secretion; [7]): -23% | change in vivo at 20 mg/kg (gastric secretion; [8]): -16% | change in vivo at 20 mg/kg (gastric secretion; [9]): -6% | change in vivo at 20 mg/kg (gastric secretion; [10]): -9% | ED50 (gastric secretion; [11]): 2.6 mg/kg | ability to reduce the gastric acid secretion (in words) (gastric secretion): interesting ability

C/N=C(\S)NCCSCc1[nH]cnc1C [Metiamide]
reduction of gastric acid secretion (in words) (gastric acid secretion): effective to reduce the gastric acid secretion
